Patent US9511010B2, “Compounds useful in the treatment and/or care of the skin, hair and/or mucous membranes and their cosmetic or pharmaceutical compositions” (Lubrizol Advanced Materials, Inc., priority 2012, dated 2016)

What was measured:
[1] = test system: HEKa primary keratinocytes; experiment: Host cell reactivation (HCR) assay, activation of DNA repair in primary keratinocytes; type: cell-based, human; conditions: 24 hours, basal = 100
Protocol: The host cell reactivation (HCR) assay was used in HEKa primary keratinocytes to evaluate the capacity of the peptides of the invention to repair the damage to the DNA in a biologically functional way. 40,000 cells per well were seeded and they were co-transfected with a control plasmid which constitutively expresses the Firefly luciferase gene (pGL3), previously damaged by UVC, and with an undamaged plasmid which constitutively expresses the Renilla luciferase gene (vector pRluc-N1(h)).
Subsequently the cells were incubated with the compounds of the invention at 0.025 mg/mL and 0.5 mg/mL in EpiLife medium for 24 hours, after which the luminescence due to the activity of the Firefly and Renilla luciferases was measured using the Dual-Go Luciferase Assay System kit following the manufacturer's instructions. The carrier in which the compounds of the invention (EpiLife medium) were dissolved was used as a negative control. The activation percentage of the DNA repair for each sample was calculated standardizing the luminescence values of the Firefly luciferase with regard to the Renilla luciferase, subsequently standardizing with regard to the values of the negative control.
Each experiment was carried out three times in 3 independent experiments.

[2] = test system: senescence-associated β-galactosidase (SA-β-Gal) in HDFa cells; experiment: Reduction of cell senescence in human fibroblasts (SA-β-Gal histochemical detection); type: cell-based; conditions: for Proportion of positive SA-β-gal cells: 24 hours, HDF, control 27.28
Protocol: A widely used assay to evaluate cell senescence is histochemical detection of the activity, of the β-galactosidase, called SA-β-Gal. The activity of the β-galactosidase is derived from the increase in the lysosomal content of senescent cells, which enables the detection of the lysosomal β-galactosidase at pH 6.0. The β-galactosidase is considered a marker of senescence both in vitro and in vivo.
With this objective, HDFa cells from phase 4 of a person were seeded in 96-well plates at 10,000 cells/well in culture medium 106 supplemented with 2% LSGS. After 24 hours the culture medium was removed and the cells were treated with 0.025 mg/mL and 0.01 mg/mL of Ac-L-Tyr-L-Glu-L-Lys-L-Leu-L-Gln-L-Val-NH2 (Ac-SEQ ID NO:22-NH2) in culture medium 106 for another 24 hours at 37° C. and humidified air with 5% CO2.
As a positive control of cell senescence (old fibroblasts) HDFa from phase […] of a person were used treated with culture medium; as a negative control of cell senescence (juvenile fibroblasts) HDFa from phase 4 were used from a person treated with culture medium.
After the incubation period the activity of the senescence-associated β-galactosidase (SA-β-Gal) was determined with the Senescence Cells Histochemical Kit.

[3] = test system: Adult human epidermal keratinocytes (HEKa); experiment: Profile of the gene expression of human epidermal keratinocytes (microarray); type: cell-based; conditions: 0.1 mg/ml, 24 hours, vs untreated cells
Protocol: Adult human epidermal keratinocytes (HEKa) were seeded (15×10^4 cells/vial cells/vial T25 cm^2), and were incubated in complete Epilife medium for 7 days at 37° C. in an atmosphere with 5% CO2. After the incubation, the cells were treated for 24 hours at 37° C. in an atmosphere with 5% CO2 with 0.1 mg/ml of the compound Ac-L-Tyr-L-Glu-L-Lys-L-Leu-L-Gln-L-Val-NH2 (Ac-SEQ ID NO:22-NH2) in complete Epilife medium or in complete Epilife medium as a negative control. The incubations and the treatments were carried out in duplicate for each condition.
24 hours after the treatments, the cells were homogenized and the RNA was extracted and purified from each replica and each condition by means of the RNeasyPlus Mini kit by Qiagen. Briefly, RNases were inactivated from cells lysates and samples were passed through special RNA binding columns to eliminate contaminants and impurities and after several microcentrifugation washes, the purified RNA was eluted with 50 μl of ultrapure water. The purity, integrity and concentration of the RNA obtained was evaluated by means of spectrophotometry (Nanodrop) and with a bioanalyzer (Agilent Bioanalyzer).
The marking of the purified RNA was carried out as was the hybridization of the samples in a human gene expression microarray (ASurePrint G3, Agilent). The normalized values obtained with the treatment were compared with the normalized values obtained with the negative control to obtain genes with differential expression. Next, a parametric analysis of the data was carried out by means of the Bioconductor software. Then, the values obtained were evaluated by means of GSEA (Gene Set Analysis Enrichment) to group the genes with differential expression in terms of Gene Ontology. Biological Routes and most significant pathways with a False Discovery Rate (FDR) lower than 25% were selected.

Ac-YEKLQV-NH2 [Ac-SEQ ID NO: 22-NH2, Ac-L-Tyr-L-Glu-L-Lys-L-Leu-L-Gln-L-Val-NH2]
Activation Average (%) of DNA repair, HCR assay ([1]; 0.025 mg/mL): 203%
Activation Average (%) of DNA repair, HCR assay ([1]; 0.5 mg/mL): 272%
Proportion of positive SA-β-gal cells ([2]; 0.01 mg/mL): 7.02
Proportion of positive SA-β-gal cells ([2]; 0.025 mg/mL): 16.90
Effect on proportion of cells containing β-galactosidase (in words) ([2]; HDFa): reduced the proportion of cells containing β-galactosidase
% Expression induction, ACD ([3]; gene ACD, LONGEVITY, TELOMERE MAINTENANCE AND PROTECTION): 10.76%
% Expression induction, AIF1 ([3]; gene AIF1, INFLAMMATION, ANTI-INFLAMMATORY RESPONSE): 19.02%
% Expression induction, ANXA1 ([3]; gene ANXA1, INFLAMMATION, ANTI-INFLAMMATORY RESPONSE): 8.22%
% Expression induction, ANXA4 ([3]; gene ANXA4, INFLAMMATION, ANTI-INFLAMMATORY RESPONSE): 17.69%
% Expression induction, ANXA5 ([3]; gene ANXA5, INFLAMMATION, ANTI-INFLAMMATORY RESPONSE): 22.32%
% Expression induction, ATM ([3]; gene ATM, CELL CYCLE): 48.53%
% Expression induction, ATRX ([3]; gene ATRX, HELICASE ACTIVITY and ATPase ACTIVITY): 48.65%
% Expression induction, BAG4 ([3]; gene BAG4, APOPTOSIS INHIBITION): 32.42%
% Expression induction, BAX ([3]; gene BAX, APOPTOSIS INHIBITION): −60.73%
% Expression induction, BCL2 ([3]; gene BCL2, APOPTOSIS INHIBITION): 59.91%
% Expression induction, BCL2L2 ([3]; gene BCL2L2, APOPTOSIS INHIBITION): 32.49%
% Expression induction, BIRC3 ([3]; gene BIRC3, APOPTOSIS INHIBITION): 16.84%
% Expression induction, BIRC6 ([3]; gene BIRC6, APOPTOSIS INHIBITION): 73.14%
% Expression induction, BNIP2 ([3]; gene BNIP2, APOPTOSIS INHIBITION): 30.68%
% Expression induction, BNIP3L ([3]; gene BNIP3L, APOPTOSIS INHIBITION): 31.39%
% Expression induction, CASP3 ([3]; gene CASP3, APOPTOSIS ACTIVATION): 31.18%
% Expression induction, CDK7 ([3]; gene CDK7, DNA repair, Protein DNA Complex Assembly): 14.31%
% Expression induction, CHD1 ([3]; gene CHD1, HELICASE ACTIVITY and ATPase ACTIVITY): 40.46%
% Expression induction, CHD2 ([3]; gene CHD2, HELICASE ACTIVITY and ATPase ACTIVITY): 42.59%
% Expression induction, DDX1 ([3]; gene DDX1, HELICASE ACTIVITY and ATPase ACTIVITY): 26.92%
% Expression induction, DDX10 ([3]; gene DDX10, HELICASE ACTIVITY and ATPase ACTIVITY): 27.49%
% Expression induction, DDX25 ([3]; gene DDX25, HELICASE ACTIVITY and ATPase ACTIVITY): 16.24%
% Expression induction, ERCC6 ([3]; gene ERCC6, HELICASE ACTIVITY and ATPase ACTIVITY): 74.50%
% Expression induction, ERCC8 ([3]; gene ERCC8, DNA repair, Protein DNA Complex Assembly): 8.90%
% Expression induction, FAS ([3]; gene FAS, APOPTOSIS INHIBITION): −15.36%
% Expression induction, IL6 ([3]; gene IL6, INFLAMMATION, ANTI-INFLAMMATORY RESPONSE): −26.30%
% Expression induction, MAPK8 ([3]; gene MAPK8, APOPTOSIS INHIBITION): −33.72%
% Expression induction, MCL1 ([3]; gene MCL1, APOPTOSIS ACTIVATION): −17.76%
% Expression induction, MED4 ([3]; gene MED4, DNA repair, Protein DNA Complex Assembly): 28.80%
% Expression induction, MED13 ([3]; gene MED13, DNA repair, Protein DNA Complex Assembly): 56.75%
% Expression induction, MED14 ([3]; gene MED14, DNA repair, Protein DNA Complex Assembly): 32.54%
% Expression induction, MED17 ([3]; gene MED17, DNA repair, Protein DNA Complex Assembly): 46.25%
% Expression induction, MNAT1 ([3]; gene MNAT1, DNA repair, Protein DNA Complex Assembly): 17.84%
% Expression induction, MSH4 ([3]; gene MSH4, CELL CYCLE): 33.28%
% Expression induction, MYC ([3]; gene MYC, APOPTOSIS ACTIVATION): 41.70%
% Expression induction, NLRP3 ([3]; gene NLRP3, INFLAMMATION, ANTI-INFLAMMATORY RESPONSE): 36.49%
% Expression induction, NLRP12 ([3]; gene NLRP12, INFLAMMATION, ANTI-INFLAMMATORY RESPONSE): 39.96%
% Expression induction, PAPD7 ([3]; gene PAPD7, DNA POLYMERASE ACTIVITY): 65.27%
% Expression induction, POLA1 ([3]; gene POLA1, DNA POLYMERASE ACTIVITY): 29.28%
% Expression induction, POLD4 ([3]; gene POLD4, DNA POLYMERASE ACTIVITY): 31.74%
% Expression induction, POLH ([3]; gene POLH, DNA POLYMERASE ACTIVITY): 28.96%
% Expression induction, PTEN ([3]; gene PTEN, other genes involved in LONGEVITY): 26.04%
% Expression induction, RAD17 ([3]; gene RAD17, CELL CYCLE): 0.21%
% Expression induction, RAD21 ([3]; gene RAD21, CELL CYCLE): 18.22%
% Expression induction, RAD50 ([3]; gene RAD50, CELL CYCLE): 37.66%
% Expression induction, RAD54B ([3]; gene RAD54B, CELL CYCLE): 26.20%
% Expression induction, SETX ([3]; gene SETX, HELICASE ACTIVITY and ATPase ACTIVITY): 65.33%
% Expression induction, SH3GLB1 ([3]; gene SH3GLB1, APOPTOSIS ACTIVATION): 52.57%
% Expression induction, SMARCA1 ([3]; gene SMARCA1, HELICASE ACTIVITY and ATPase ACTIVITY): 29.62%
% Expression induction, SOCS2 ([3]; gene SOCS2, INFLAMMATION, ANTI-INFLAMMATORY RESPONSE): 56.13%
% Expression induction, TAF1 ([3]; gene TAF1, DNA repair, Protein DNA Complex Assembly): 65.00%
% Expression induction, TAF2 ([3]; gene TAF2, DNA repair, Protein DNA Complex Assembly): 25.12%
% Expression induction, TAF5 ([3]; gene TAF5, DNA repair, Protein DNA Complex Assembly): 8.18%
% Expression induction, TAX1BP1 ([3]; gene TAX1BP1, APOPTOSIS INHIBITION): 19.23%
% Expression induction, TEP1 ([3]; gene TEP1, LONGEVITY, TELOMERE MAINTENANCE AND PROTECTION): 38.49%
% Expression induction, TERF1 ([3]; gene TERF1, LONGEVITY, TELOMERE MAINTENANCE AND PROTECTION): 7.38%
% Expression induction, TERF2IP ([3]; gene TERF2IP, LONGEVITY, TELOMERE MAINTENANCE AND PROTECTION): 21.63%
% Expression induction, TINF2 ([3]; gene TINF2, LONGEVITY, TELOMERE MAINTENANCE AND PROTECTION): 13.37%
% Expression induction, TP53BP2 ([3]; gene TP53BP2, APOPTOSIS ACTIVATION): 22.34%
% Expression induction, WRN ([3]; gene WRN, HELICASE ACTIVITY and ATPase ACTIVITY): 35.25%
% Expression induction, XIAP ([3]; gene XIAP, APOPTOSIS INHIBITION): 51.98%
% Expression induction, XRCC2 ([3]; gene XRCC2, CELL CYCLE): 24.95%
